# Measured values published in PubChem BioAssay AID1996.
# Settings: buffer; pH 7.4; 200.0 µM
row,Structure (SMILES),solubility kinetic
1,CCOc1ccc(C2NC(=S)NC3=C2CCc2ccccc23)cc1 (stereo not given),10.9 µg/mL
2,CCCCc1ccc(NC(=S)N2CCCC2)cc1,9.2 µg/mL
3,O=C(COc1ccccc1Cl)Nc1ccc(N2CCCC2)cc1,< 0.4 µg/mL
4,CCCCNS(=O)(=O)c1ccc(NC(=O)c2cccs2)cc1,1 µg/mL
5,O=[N+]([O-])c1ccc(CN2C=NS(=O)(=O)c3ccccc32)cc1,> 47.6 µg/mL
6,COc1ccc(C(CCO)NC(=O)c2cccs2)cc1OC (stereo not given),> 48.2 µg/mL
7,CCN1CCN(C(=O)c2cc3cc(F)ccc3[nH]2)CC1,36.4 µg/mL
8,O=S(=O)(Cc1ccccc1)NCCc1cccc(Cl)c1,40.5 µg/mL
9,COCCn1c(N)c(Sc2ccccc2)c(=O)[nH]c1=O,41.4 µg/mL
10,CNC(=O)C1CC(=O)N(CCc2ccc(C)cc2)C1 (stereo not given),> 39.1 µg/mL
11,CC(OC(=O)C1CC1)C(=O)Nc1cc(C(F)(F)F)ccc1Cl (stereo not given),32 µg/mL
12,Cc1ccc(CNC(=O)C(Cc2ccccc2)n2cccc2)cc1 (stereo not given),5.3 µg/mL
13,N#Cc1cncc(C#Cc2ccccc2)c1,5.6 µg/mL
14,COc1ccc(C(=O)Nc2ccc(NC(=O)c3ccccc3F)cn2)cc1,1 µg/mL
15,O=C(O)/C=C\C(=O)Nc1cc(O)ccc1[N+](=O)[O-],> 37.8 µg/mL
16,Fc1ccccc1NC(=S)NCc1ccc(Cl)cc1,11.2 µg/mL
17,CCOC(=O)C(=O)N1CCC(C(=O)OCC)CC1,> 38.6 µg/mL
18,Cc1ccc(Cl)cc1NC(=S)N1CCCCCC1,37.8 µg/mL
19,Cc1csc(NC(=O)c2cc[n+]([O-])cc2)n1,> 35.3 µg/mL
20,CC1CC(C)CN(C(C)C(=O)Nc2cc(S(=O)(=O)N3CCCCC3)ccc2Cl)C1 (stereo not given),< 0.3 µg/mL

row,Structure (SMILES),solubility kinetic
1,COc1cc(CC(=O)NCC2CCCCC2)cc(OC)c1OC,43.9 µg/mL
2,COc1ccccc1NC(=O)CN(Cc1ccco1)C(=O)c1ccc(N2CCCC2=O)cc1,64.9 µg/mL
3,Nc1nnc(SCc2c(F)cccc2Cl)s1,> 41.4 µg/mL
4,NC(=O)C1CCN(CCS(=O)(=O)c2ccc(Cl)cc2)CC1,> 49.6 µg/mL
5,O=C(O)CC1(CC(=O)NCc2ccc(C(F)(F)F)cc2)CCCCC1,> 53.6 µg/mL
6,CCOC(=O)C1CCN(CCC(=O)Nc2cc(C)ccc2C)CC1,> 49.9 µg/mL
7,CC1CCc2c(sc(NC(=O)COC(=O)C3CCCO3)c2C#N)C1 (stereo not given),34.2 µg/mL
8,CC(NC(=O)C(Cc1ccccc1)n1cccc1)c1ccccc1 (stereo not given),11.6 µg/mL
9,N[C@@H](Cc1ccccc1)C(=O)N1C[C@H]2C[C@@H](C1)c1cccc(=O)n1C2,49 µg/mL
10,COc1ccc(/C(N)=N/OC(=O)C2CCCCC2)cc1,20.6 µg/mL
11,O=C(C1CCN(S(=O)(=O)c2c(Cl)cccc2Cl)CC1)N1CCCC1,> 58.7 µg/mL
12,O=C(CN1C(=O)CCC1=O)NC(=O)NC1CCCC1,> 40.1 µg/mL
13,CCC(OC(=O)c1nsc(Cl)c1Cl)C(=O)NCCOC (stereo not given),> 51.2 µg/mL
14,COc1ccc(Cl)cc1S(=O)(=O)NC(C)C(=O)NCc1ccccn1 (stereo not given),52.8 µg/mL
15,Cc1ccc(S(=O)(=O)N2CC(C)N(S(C)(=O)=O)C2)cc1 (stereo not given),> 47.8 µg/mL
16,CC(=O)Nc1cccc(C(=O)OCCCOc2ccc(F)cc2)c1,2.6 µg/mL
17,c1ccc2cc(CNCc3cccc4ccccc34)ccc2c1,4.1 µg/mL
18,Cc1cccc(/C=C/c2onc(C)c2[N+](=O)[O-])n1,2.8 µg/mL
19,O=C(CSc1cccc[n+]1[O-])NC1CCCCC1,> 40 µg/mL
20,COc1ccc(OC)c(S(=O)(=O)NCCCn2ccnc2)c1,41.6 µg/mL

# Second part, the compound after the results:
row,solubility kinetic,Structure (SMILES)
1,6.3 µg/mL,O=C1NC(=O)c2cc([N+](=O)[O-])cc3cccc1c23
2,2.4 µg/mL,COc1ccc(CCNC(=O)c2cnc(Cl)c(Cl)c2)cc1
3,< 0.3 µg/mL,CC(C)C(=O)Nc1ccc(NC(=O)c2ccc3c(c2)OCO3)cc1
4,4.1 µg/mL,COc1ccc(CNC(=O)c2c[nH]c3ccccc3c2=O)cc1
5,1.5 µg/mL,Cc1ccc(NC(=O)c2cc3ccccc3o2)cc1
6,1.7 µg/mL,Cc1ccc2nc(-c3ccc(O)cc3)oc2c1
7,< 0.2 µg/mL,Clc1ccc(-c2nc(-c3ccncc3)no2)c(Cl)c1
8,> 36.5 µg/mL,COc1ccc(NC(=O)Nc2cccnc2)cc1
9,> 38.9 µg/mL,CCc1ccc(OCCNC(=O)c2ccco2)cc1
10,> 56.8 µg/mL,Cl.O=C(COc1ccc(Br)cc1)OCCN1CCCCC1
11,0.8 µg/mL,CS(=O)(=O)c1ccc2nc(NC(=O)Nc3ccccc3F)sc2c1
12,45.6 µg/mL,C=CCN=C1SC(C)(C)C(=O)N1S(=O)(=O)c1ccc(C)cc1
13,31.9 µg/mL,CCCC[n+]1c(C)sc2cc(OC)ccc21.[I-]
14,18.3 µg/mL,CC(C)C(NC(=O)CCN1C(=O)c2ccccc2C1=O)c1ccccc1 (stereo not given)
15,25 µg/mL,CCC(=O)Nc1cccc2cccnc12
16,< 0.7 µg/mL,CCc1cc2c(=O)oc(-c3ccc(Br)cc3)nc2s1
17,3.9 µg/mL,CCCOc1ccccc1Cn1c(=O)oc2ccccc21
18,0.6 µg/mL,O=C1Nc2ccc3sc4ccccc4c3c2C1=O
19,> 41.4 µg/mL,CCOC(=O)COc1cc([N+](=O)[O-])cc2cccnc12
20,5.6 µg/mL,O=[N+]([O-])c1ccc(OCc2cnc(Cl)s2)cc1
